From patent US20250282794A1 (CURADEV PHARMA LTD, priority 2022, published 2025) come the findings set out here.

Structures are written as SMILES. Bounds are passed on as bounds.

The target in the assay is recombinant full length HPK-1 enzyme (Homo sapiens (Human), UniProt Q92918). Description: HPK-1 biochemical enzyme assay (ADP-Glo kinase inhibition). Conditions: recombinant full length HPK-1 6.8 nM, 10 μM ATP, 12.5 μM MBP, 30 mins at 25° C. The method in brief: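 ADP-Glo readout of ADP formed after a 30 min, 25° C. reaction of 6.8 nM full-length HPK-1 with swine myelin basic protein (12.5 μM) and ATP (10 μM) in Tris pH 7.4 buffer with MgCl2, DTT and BSA. Ten compound concentrations tested; percent inhibition set against vehicle (0%) and no-enzyme (100%) controls gave IC50.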
recombinant full length HPK-1 enzyme, sequence (Q92918 whole entry, species assumed): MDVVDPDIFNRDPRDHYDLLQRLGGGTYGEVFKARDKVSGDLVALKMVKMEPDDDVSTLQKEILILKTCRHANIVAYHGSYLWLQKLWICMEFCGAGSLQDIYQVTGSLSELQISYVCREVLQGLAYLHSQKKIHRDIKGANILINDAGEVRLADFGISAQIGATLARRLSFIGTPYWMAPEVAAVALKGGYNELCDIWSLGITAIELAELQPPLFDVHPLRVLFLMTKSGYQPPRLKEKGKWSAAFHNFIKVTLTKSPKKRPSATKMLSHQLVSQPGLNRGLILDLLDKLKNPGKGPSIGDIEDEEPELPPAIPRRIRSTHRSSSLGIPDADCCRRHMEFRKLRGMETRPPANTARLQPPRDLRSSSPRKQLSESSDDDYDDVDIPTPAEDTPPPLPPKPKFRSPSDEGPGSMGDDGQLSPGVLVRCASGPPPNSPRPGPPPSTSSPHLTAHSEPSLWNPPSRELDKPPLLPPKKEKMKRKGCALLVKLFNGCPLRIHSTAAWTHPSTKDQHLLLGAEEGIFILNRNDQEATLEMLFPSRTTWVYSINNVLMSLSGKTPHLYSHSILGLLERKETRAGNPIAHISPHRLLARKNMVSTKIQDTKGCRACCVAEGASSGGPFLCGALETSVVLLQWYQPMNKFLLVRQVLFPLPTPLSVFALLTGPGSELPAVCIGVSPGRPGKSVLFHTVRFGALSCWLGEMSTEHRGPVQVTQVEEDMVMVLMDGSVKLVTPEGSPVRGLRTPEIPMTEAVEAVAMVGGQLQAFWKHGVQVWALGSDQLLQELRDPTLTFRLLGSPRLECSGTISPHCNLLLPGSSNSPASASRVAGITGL

On to `Cc1c(Nc2cc[nH]c(=O)c2C(=O)Nc2ccc(C3CCN(C(C)C)CC3)cc2)cnc2c1NCC(C)O2` (stereo not shown) [Example 384, 4-((3,8-dimethyl-2,3-dihydro-1H-pyrido[2,3-b][1,4]oxazin-7-yl)amino)-N-(4-(1-isopropylpiperidin-4-yl)phenyl)-2-oxo-1,2-dihydropyridine-3-carboxamide], for which the IC50 (usually the concentration that gives 50% inhibition) lay in the range of 10 to 100 nM. For `CCN1CCN(c2ccc(NC(=O)c3c(Nc4cnc5c(c4C)NCC(C)O5)cc[nH]c3=O)cc2F)CC1` (stereo not shown) [Example 385, 4-((3,8-dimethyl-2,3-dihydro-1H-pyrido[2,3-b][1,4]oxazin-7-yl)amino)-N-(4-(4-ethylpiperazin-1-yl)-3-fluorophenyl)-2-oxo-1,2-dihydropyridine-3-carboxamide], the IC50 lay within 10 to 100 nM.

On to `CCN1CCN(c2ccc(NC(=O)c3c(Nc4cnc5c(c4C)NCC(C)O5)cc[nH]c3=O)cc2F)CC1` (stereo not shown) [Example 386, 4-((3,8-dimethyl-2,3-dihydro-1H-pyrido[2,3-b][1,4]oxazin-7-yl)amino)-N-(4-(4-ethylpiperazin-1-yl)-3-fluorophenyl)-2-oxo-1,2-dihydropyridine-3-carboxamide], for which the IC50 is ≤ 10 nM. To `Cc1c(Nc2cc[nH]c(=O)c2C(=O)Nc2ccc(N3CCN(CCF)CC3)c(F)c2)cnc2c1NCCO2` [Example 387, N-(3-fluoro-4-(4-(2-fluoroethyl)piperazin-1-yl)phenyl)-4-((8-methyl-2,3-dihydro-1H-pyrido[2,3-b][1,4]oxazin-7-yl)amino)-2-oxo-1,2-dihydropyridine-3-carboxamide] belongs 10 to 100 nM; to `CCN1CCN(c2c(F)cc(NC(=O)c3c(Nc4cnc5c(c4C)NCCO5)cc[nH]c3=O)cc2Cl)CC1` [Example 389, N-(3-Chloro-4-(4-ethylpiperazin-1-yl)-5-fluorophenyl)-4-((8-methyl-2,3-dihydro-1H-pyrido[2,3-b][1,4]oxazin-7-yl)amino)-2-oxo-1,2-dihydropyridine-3-carboxamide], ≤ 10 nM. `CCN1CCN(c2c(F)cc(NC(=O)c3c(Nc4cnc5c(c4C)NCCO5)cc[nH]c3=O)cc2F)CC1` [Example 390, N-(4-(4-ethylpiperazin-1-yl)-3,5-difluorophenyl)-4-((8-methyl-2,3-dihydro-1H-pyrido[2,3-b][1,4]oxazin-7-yl)amino)-2-oxo-1,2-dihydropyridine-3-carboxamide]: the IC50 was 10 to 100 nM.

For the molecule `Cc1c(Nc2cc[nH]c(=O)c2C(=O)Nc2ccc(N3CCN(C4CC4)CC3)c(Cl)c2)cnc2c1NCCO2` [Example 391, N-(3-chloro-4-(4-cyclopropylpiperazin-1-yl)phenyl)-4-((8-methyl-2,3-dihydro-1H-pyrido[2,3-b][1,4]oxazin-7-yl)amino)-2-oxo-1,2-dihydropyridine-3-carboxamide], the half-inhibitory concentration (IC50) was ≤ 10 nM. Regarding `COC1(CN(C)C)CCN(c2ccc(NC(=O)c3c(Nc4cnc5c(c4C)NCCO5)cc[nH]c3=O)cc2)CC1` [Example 392, N-(4-(4-((dimethylamino)methyl)-4-methoxypiperidin-1-yl)phenyl)-4-((8-methyl-2,3-dihydro-1H-pyrido[2,3-b][1,4]oxazin-7-yl)amino)-2-oxo-1,2-dihydropyridine-3-carboxamide], the IC50 was ≤ 10 nM. The result for `Cc1c(Nc2cc[nH]c(=O)c2C(=O)Nc2ccc(N3CCN(C)CC3)c(CCO)c2)cnc2c1NCCO2` [Example 394, N-(3-(2-hydroxyethyl)-4-(4-methylpiperazin-1-yl)phenyl)-4-((8-methyl-2,3-dihydro-1H-pyrido[2,3-b][1,4]oxazin-7-yl)amino)-2-oxo-1,2-dihydropyridine-3-carboxamide] reads 10 to 100 nM; that for `Cc1c(Nc2cc[nH]c(=O)c2C(=O)Nc2ccc(N3CCC(N)C3)cc2)cnc2c1NCCO2` (stereo not shown) [Example 395, N-(4-(3-aminopyrrolidin-1-yl)phenyl)-4-((8-methyl-2,3-dihydro-1H-pyrido[2,3-b][1,4]oxazin-7-yl)amino)-2-oxo-1,2-dihydropyridine-3-carboxamide], 10 to 100 nM.

`COc1ncc(C(C)(C)O)c2cc(NC(=O)c3c(Nc4cnc5c(c4C)NCCO5)cc[nH]c3=O)ccc12` [Example 396, N-(4-(2-Hydroxypropan-2-yl)-1-methoxyisoquinolin-6-yl)-4-((8-methyl-2,3-dihydro-1H-pyrido[2,3-b][1,4]oxazin-7-yl)amino)-2-oxo-1,2-dihydropyridine-3-carboxamide]: the IC50 fell in the range of 100 to 1000 nM.

As to `Cc1c(Nc2cc[nH]c(=O)c2C(=O)Nc2ccc(N3CCCC3CO)cc2)cnc2c1NCCO2` (stereo not shown) [Example 397, N-(4-(2-(hydroxymethyl)pyrrolidin-1-yl)phenyl)-4-((8-methyl-2,3-dihydro-1H-pyrido[2,3-b][1,4]oxazin-7-yl)amino)-2-oxo-1,2-dihydropyridine-3-carboxamide], the IC50 is 10 to 100 nM.

Regarding `Cc1c(Nc2cc[nH]c(=O)c2C(=O)Nc2ccc(N3CCC(O)C3)cc2)cnc2c1NCCO2` (stereo not shown) [Example 398, N-(4-(3-hydroxypyrrolidin-1-yl)phenyl)-4-((8-methyl-2,3-dihydro-1H-pyrido[2,3-b][1,4]oxazin-7-yl)amino)-2-oxo-1,2-dihydropyridine-3-carboxamide], the IC50 fell in the range of 10 to 100 nM. The result for `CCCN1CCN(c2ccc(NC(=O)c3c(Nc4cnc5c(c4C)NCCO5)cc[nH]c3=O)cc2)CC1` [Example 399, 4-((8-methyl-2,3-dihydro-1H-pyrido[2,3-b][1,4]oxazin-7-yl)amino)-2-oxo-N-(4-(4-propylpiperazin-1-yl)phenyl)-1,2-dihydropyridine-3-carboxamide] reads ≤ 10 nM; that for `Cc1cc(NC(=O)c2c(Nc3cnc4c(c3C)NCCO4)cc[nH]c2=O)ccc1N1CCN(C2CC2)CC1` [Example 400, N-(4-(4-cyclopropylpiperazin-1-yl)-3-methylphenyl)-4-((8-methyl-2,3-dihydro-1H-pyrido[2,3-b][1,4]oxazin-7-yl)amino)-2-oxo-1,2-dihydropyridine-3-carboxamide], 10 to 100 nM. As for `CCOc1cc(NC(=O)c2c(Nc3cnc4c(c3C)NCCO4)cc[nH]c2=O)ccc1N1CCN(C2CC2)CC1` [Example 401, N-(4-(4-cyclopropylpiperazin-1-yl)-3-ethoxyphenyl)-4-((8-methyl-2,3-dihydro-1H-pyrido[2,3-b][1,4]oxazin-7-yl)amino)-2-oxo-1,2-dihydropyridine-3-carboxamide], the IC50 was 10 to 100 nM. As to `CC(=O)N1CCN(c2ccc(NC(=O)c3c(Nc4cnc5c(c4C)NCCO5)cc[nH]c3=O)cc2)CC1` [Example 402, N-(4-(4-acetylpiperazin-1-yl)phenyl)-4-((8-methyl-2,3-dihydro-1H-pyrido[2,3-b][1,4]oxazin-7-yl)amino)-2-oxo-1,2-dihydropyridine-3-carboxamide], the IC50 fell in the range of 10 to 100 nM.

With `Cc1c(Nc2cc[nH]c(=O)c2C(=O)Nc2ccc(N3CCN(C(=O)CCO)CC3)cc2)cnc2c1NCCO2` [Example 403, N-(4-(4-(3-hydroxypropanoyl)piperazin-1-yl)phenyl)-4-((8-methyl-2,3-dihydro-1H-pyrido[2,3-b][1,4]oxazin-7-yl)amino)-2-oxo-1,2-dihydropyridine-3-carboxamide], the IC50 was ≤ 10 nM. To `Cc1c(Nc2cc[nH]c(=O)c2C(=O)Nc2ccc(N3CCN(C(C)C)CC3)cc2)cnc2c1NCC(C)O2` (stereo not shown) [Example 404, 4-((3,8-dimethyl-2,3-dihydro-1H-pyrido[2,3-b][1,4]oxazin-7-yl)amino)-N-(4-(4-isopropylpiperazin-1-yl)phenyl)-2-oxo-1,2-dihydropyridine-3-carboxamide] belongs ≤ 10 nM. As for `Cc1c(Nc2cc[nH]c(=O)c2C(=O)Nc2ccc(N3CCN(C(C)C)CC3)cc2)cnc2c1NCC(C)O2` (stereo not shown) [Example 405, 4-((3,8-dimethyl-2,3-dihydro-1H-pyrido[2,3-b][1,4]oxazin-7-yl)amino)-N-(4-(4-isopropylpiperazin-1-yl)phenyl)-2-oxo-1,2-dihydropyridine-3-carboxamide], the IC50 is 10 to 100 nM. For `COCCCN1CCN(c2ccc(NC(=O)c3c(Nc4cnc5c(c4C)NCC(C)O5)cc[nH]c3=O)cc2)CC1` (stereo not shown) [Example 406, 4-((3,8-dimethyl-2,3-dihydro-1H-pyrido[2,3-b][1,4]oxazin-7-yl)amino)-N-(4-(4-(3-methoxypropyl)piperazin-1-yl)phenyl)-2-oxo-1,2-dihydropyridine-3-carboxamide], the half-inhibitory concentration (IC50) lay in the range of 10 to 100 nM. On to `Cc1c(Nc2cc[nH]c(=O)c2C(=O)Nc2ccc(N3CCN(c4ccn(C)n4)CC3)cc2)cnc2c1NCC(C)O2` (stereo not shown) [Example 407, 4-((3,8-dimethyl-2,3-dihydro-1H-pyrido[2,3-b][1,4]oxazin-7-yl)amino)-N-(4-(4-(1-methyl-1H-pyrazol-3-yl)piperazin-1-yl)phenyl)-2-oxo-1,2-dihydropyridine-3-carboxamide], for which the IC50 was 10 to 100 nM.

On to `Cc1c(Nc2cc[nH]c(=O)c2C(=O)Nc2ccc(N3CCN(C)CC3CO)cc2)cnc2c1NCCO2` (stereo not shown) [Example 408, N-(4-(2-(hydroxymethyl)-4-methylpiperazin-1-yl)phenyl)-4-((8-methyl-2,3-dihydro-1H-pyrido[2,3-b][1,4]oxazin-7-yl)amino)-2-oxo-1,2-dihydropyridine-3-carboxamide], for which the IC50 is 10 to 100 nM. On to `Cc1c(Nc2cc[nH]c(=O)c2C(=O)Nc2cnn(CC(F)(F)F)c2)cnc2c1NCCO2` [Example 409, 4-((8-methyl-2,3-dihydro-1H-pyrido[2,3-b][1,4]oxazin-7-yl)amino)-2-oxo-N-(1-(2,2,2-trifluoroethyl)-1H-pyrazol-4-yl)-1,2-dihydropyridine-3-carboxamide], for which the IC50 lay in the range of 10 to 100 nM.

Regarding `Cc1c(Nc2cc[nH]c(=O)c2C(=O)Nc2ccc(N3CCN(c4cnn(C)c4)CC3)cc2)cnc2c1NCCO2` [Example 410, N-(4-(4-(1-methyl-1H-pyrazol-4-yl)piperazin-1-yl)phenyl)-4-((8-methyl-2,3-dihydro-1H-pyrido[2,3-b][1,4]oxazin-7-yl)amino)-2-oxo-1,2-dihydropyridine-3-carboxamide], the IC50 was 10 to 100 nM.
